# Data taken from US6995143B2, “Macrolides with antibacterial activity” (Basilea Pharmaceutica AG, priority 2002, dated 2006).
# Key:
# Assay type in all cases: cell-based
# [1] = test system: Haemophilus influenzae B1501; experiment: MIC, standard agar dilution method using HTM medium; conditions: for MIC: read-out: minimum inhibitory concentration (MIC), Strain M
# From the text: (§1) The biological activities of compounds of the present invention against Haemophilus influenzae have been determined by standard agar dilution method using HTM medium (National Committee for Clinical Laboratory Standards. 2000. Methods for Dilution Antimicrobial Susceptibility Tests for Bacteria that Grow Aerobically, 5th edition. Approved standard M7-A5. National Committee for Clinical Laboratory Standards, Wayne, Pa.).
# [2] = test system: Haemophilus influenzae 12214; experiment: as above; conditions: for MIC: read-out: minimum inhibitory concentration (MIC), Strain K
# From the text: as §1
# [3] = test system: Haemophilus influenzae QK50; experiment: as above; conditions: for MIC: read-out: minimum inhibitory concentration (MIC), Strain L
# From the text: as §1
# [4] = test system: Haemophilus influenzae QK12/87; experiment: as above; conditions: for MIC: read-out: minimum inhibitory concentration (MIC), Strain I
# From the text: as §1
# [5] = test system: Streptococcus pneumoniae SL199T; experiment: MIC, standard microdilution technique; conditions: for MIC: read-out: minimum inhibitory concentration (MIC), Strain G
# From the text: (§2) The antibacterial activities of the compounds have been determined by standard microdilution technique (National Committee for Clinical Laboratory Standards. 2000. Methods for Dilution Antimicrobial Susceptibility Tests for Bacteria that Grow Aerobically, 5th edition. Approved standard M7-A5. National Committee for Clinical Laboratory Standards, Wayne, Pa.).
# [6] = test system: Escherichia coli ATCC 25922; experiment: MIC, standard microdilution technique; conditions: for MIC: ATCC25922, read-out: minimum inhibitory concentration (MIC), Strain D
# From the text: as §2
# [7] = test system: Staphylococcus aureus 745; experiment: MIC, standard microdilution technique; conditions: for MIC: read-out: minimum inhibitory concentration (MIC), Strain C
# From the text: as §2
# [8] = test system: Staphylococcus aureus ATCC 29213; experiment: MIC, standard microdilution technique; conditions: for MIC: ATCC29213, read-out: minimum inhibitory concentration (MIC), Strain A
# From the text: as §2
# [9] = test system: Streptococcus pneumoniae ¼; experiment: MIC, standard microdilution technique; conditions: for MIC: read-out: minimum inhibitory concentration (MIC), Strain F
# From the text: as §2
# [10] = test system: Streptococcus pneumoniae 12288; experiment: MIC, standard microdilution technique; conditions: for MIC: read-out: minimum inhibitory concentration (MIC), Strain H
# From the text: as §2
# [11] = test system: Staphylococcus aureus 1086; experiment: MIC, standard microdilution technique; conditions: for MIC: read-out: minimum inhibitory concentration (MIC), Strain B
# From the text: as §2
# [12] = test system: Streptococcus pneumoniae l/l; experiment: MIC, standard microdilution technique; conditions: for MIC: read-out: minimum inhibitory concentration (MIC), Strain E
# From the text: as §2
Compound,MIC [1],MIC [2],MIC [3],MIC [4],MIC [5],MIC [6],MIC [7],MIC [8],"minimum inhibitory concentration (MIC), Strain M [1]","minimum inhibitory concentration (MIC), Strain K [2]","minimum inhibitory concentration (MIC), Strain L [3]","minimum inhibitory concentration (MIC), Strain I [4]","minimum inhibitory concentration (MIC), Strain G [5]","minimum inhibitory concentration (MIC), Strain D [6]","minimum inhibitory concentration (MIC), Strain C [7]","minimum inhibitory concentration (MIC), Strain A [8]","minimum inhibitory concentration (MIC), Strain F [9]","minimum inhibitory concentration (MIC), Strain H [10]","minimum inhibitory concentration (MIC), Strain B [11]","minimum inhibitory concentration (MIC), Strain E [12]",also measured
"CC[C@H]1OC(=O)[C@H](C)C(=O)[C@H](C)[C@@H](O[C@@H]2O[C@H](C)C[C@H](N(C)C)[C@H]2O)[C@](C)(OC)C[C@@H](C)C(=O)[C@H](C)[C@H]2[C@@H](SCCNC(=O)c3cccnc3)C(=O)O[C@@]21C (single isomer, unassigned) [Example 19, (3R or S, 3aR, 4R or S, 6R, 8R, 9R, 10R, 12R, 15R, 15aS) -15-Ethyloctahydro-8-methoxy-4,6,8,10,12,15a-hexamethyl-3-[[2-[(3-pyridinylcarbonyl)amino]ethyl]thio]-9-[[-3,4,6-trideoxy-3-(dimethylamino)-β-D-xylo-hexopyranosyl]oxy]-2H-furo [2,3-c] oxacyclotetradecin-2,5,11,13 (3H,6H,12H)-tetrone]",4 µg/mL,4 µg/mL,8 µg/mL,4 µg/mL,32 µg/mL,> 32 µg/mL,> 32 µg/mL,0.25 µg/mL,–,–,–,–,–,–,–,–,–,–,–,–,MIC [9]: 2 µg/mL; MIC [10]: > 32 µg/mL; MIC [11]: 0.25 µg/mL; MIC [12]: 0.125 µg/mL
"CC[C@H]1OC(=O)[C@H](C)C(=O)[C@H](C)[C@@H](O[C@@H]2O[C@H](C)C[C@H](N(C)C)[C@H]2O)[C@](C)(OC)C[C@@H](C)C(=O)[C@H](C)[C@H]2[C@@H](SCCNS(=O)(=O)c3ccc(-c4ccccn4)s3)C(=O)O[C@@]21C (single isomer, unassigned) [Example 21]",–,–,–,–,–,–,–,–,16 µg/mL,16 µg/mL,16 µg/mL,32 µg/mL,16 µg/mL,>32 µg/mL,>32 µg/mL,0.125 µg/mL,8 µg/mL,32 µg/mL,0.125 µg/mL,<=0.06 μg/ml,–
"CC[C@H]1OC(=O)[C@H](C)C(=O)[C@H](C)[C@@H](O[C@@H]2O[C@H](C)C[C@H](N(C)C)[C@H]2O)[C@](C)(OC)C[C@@H](C)C(=O)[C@H](C)[C@H]2[C@@H](SCC#Cc3ccc(C#N)cc3)C(=O)O[C@@]21C (single isomer, unassigned) [Example 23]",–,–,–,–,–,–,–,–,>32 µg/mL,>32 µg/mL,>32 µg/mL,>32 µg/mL,>32 µg/mL,>32 µg/mL,>32 µg/mL,16 µg/mL,>32 µg/mL,>32 µg/mL,16 µg/mL,1 µg/mL,–
"CC[C@H]1OC(=O)[C@@](C)(F)C(=O)[C@H](C)[C@@H](O[C@@H]2O[C@H](C)C[C@H](N(C)C)[C@H]2O)[C@](C)(OC)C[C@@H](C)C(=O)[C@H](C)[C@H]2[C@@H](SCC(=O)Nc3cccc4cccnc34)C(=O)O[C@@]21C (single isomer, unassigned) [Example 25]",–,–,–,–,–,–,–,–,8 µg/mL,4 µg/mL,4 µg/mL,8 µg/mL,2 µg/mL,>32 µg/mL,32 µg/mL,0.25 µg/mL,0.125 µg/mL,4 µg/mL,0.125 µg/mL,<=0.06 μg/ml,–
"CC[C@H]1OC(=O)[C@H](C)C(=O)[C@H](C)[C@@H](O[C@@H]2O[C@H](C)C[C@H](N(C)C)[C@H]2O)[C@](C)(OC)C[C@@H](C)C(=O)[C@H](C)[C@H]2[C@@H](SCCNC(=O)c3cnc4ccccc4c3)C(=O)O[C@@]21C (single isomer, unassigned) [Example 27, (3R or S, 3aR, 4R or S, 6R, 8R, 9R, 10R, 12R, 15R, 15aS)-15-Ethyloctahydro-8-methoxy-4,6,8,10,12,15a-hexamethyl-3-[[2-[(3-quinolinylcarbonyl)amino]ethyl]thio]-9-[[3,4,6-trideoxy-3-(dimethylamino)-β-D-xylo-hexopyranosyl]oxy]-2H-furo [2,3-c] oxacyclotetradecin-2,5,11,13 (3H,6H,12H)-tetrone]",8 µg/mL,16 µg/mL,16 µg/mL,16 µg/mL,8 µg/mL,> 32 µg/mL,> 32 µg/mL,≤ 0.06 µg/mL,–,–,–,–,–,–,–,–,–,–,–,–,MIC [9]: 8 µg/mL; MIC [10]: > 32 µg/mL; MIC [11]: ≤ 0.06 µg/mL; MIC [12]: ≤ 0.06 µg/mL
"CC[C@H]1OC(=O)[C@H](C)C(=O)[C@H](C)[C@@H](O[C@@H]2O[C@H](C)C[C@H](N(C)C)[C@H]2O)[C@](C)(OC)C[C@@H](C)C(=O)[C@H](C)[C@H]2[C@@H](SCCC(=O)Nc3cnc4ccccc4c3)C(=O)O[C@@]21C (single isomer, unassigned) [Example 42]",–,–,–,–,–,–,–,–,16 µg/mL,16 µg/mL,16 µg/mL,16 µg/mL,32 µg/mL,>32 µg/mL,>32 µg/mL,0.125 µg/mL,32 µg/mL,>32 µg/mL,0.125 µg/mL,<=0.06 μg/ml,–
"CC[C@H]1OC(=O)[C@H](C)C(=O)[C@H](C)[C@@H](O[C@@H]2O[C@H](C)C[C@H](N(C)C)[C@H]2O)[C@](C)(OC)C[C@@H](C)C(=O)[C@H](C)[C@H]2[C@@H](SCCNc3ccc(C#N)cn3)C(=O)O[C@@]21C (single isomer, unassigned) [Example 46, (3R or S, 3aR, 4R or S, 6R, 8R, 9R, 10R, 12R, 15R, 15aS) -3-[[2-[(5-Cyanopyridin-2-yl)amino]ethyl]thio]-15-ethyloctahydro-8-methoxy-4,6,8,10,12,15a-hexamethyl-9-[[-3,4,6-trideoxy-3-(dimethylamino)-β-D-xylo-hexopyranosyl]oxy]-2H-furo [2,3-c] oxacyclotetradecin-2,5,11,13 (3H,6H,12H)-tetrone]",1 µg/mL,2 µg/mL,4 µg/mL,1 µg/mL,4 µg/mL,> 32 µg/mL,> 32 µg/mL,≤ 0.06 µg/mL,–,–,–,–,–,–,–,–,–,–,–,–,MIC [9]: ≤ 0.06 µg/mL; MIC [10]: 32 µg/mL; MIC [11]: ≤ 0.06 µg/mL; MIC [12]: ≤ 0.06 µg/mL
"CC[C@H]1OC(=O)[C@H](C)C(=O)[C@H](C)[C@@H](O[C@@H]2O[C@H](C)C[C@H](N(C)C)[C@H]2O)[C@](C)(OC)C[C@@H](C)C(=O)[C@H](C)[C@H]2[C@@H](SCCNC(=O)c3ccc4ncccc4c3)C(=O)O[C@@]21C (single isomer, unassigned) [Example 47]",–,–,–,–,–,–,–,–,2 µg/mL,8 µg/mL,4 µg/mL,4 µg/mL,8 µg/mL,>32 µg/mL,>32 µg/mL,0.125 µg/mL,<=0.06 μg/ml,>32 µg/mL,<=0.06 μg/ml,<=0.06 μg/ml,–
"CC[C@H]1OC(=O)[C@H](C)C(=O)[C@H](C)[C@@H](O[C@@H]2O[C@H](C)C[C@H](N(C)C)[C@H]2O)[C@](C)(OC)C[C@@H](C)C(=O)[C@H](C)[C@H]2[C@@H](SCCNC(=O)c3ccc(-n4ccnc4)nc3)C(=O)O[C@@]21C (single isomer, unassigned) [Example 48]",–,–,–,–,–,–,–,–,16 µg/mL,32 µg/mL,16 µg/mL,16 µg/mL,>32 µg/mL,>32 µg/mL,>32 µg/mL,0.25 µg/mL,>32 µg/mL,>32 µg/mL,0.25 µg/mL,<=0.06 μg/ml,–
